Values after ≈ are worked out from the molar mass of the structure shown. Where a name gives a salt, the structure may show the parent alone.
Legend:
Assay type in all cases: functional
Escherichia coli = test: Antibacterial activity against Escherichia coli by broth micro-dilution method
Pseudomonas aeruginosa = test: Antibacterial activity against Pseudomonas aeruginosa by broth micro-dilution method
Staphylococcus aureus = test: Antibacterial activity against Staphylococcus aureus by broth micro-dilution method
Streptococcus pyogenes = test: Antibacterial activity against Streptococcus pyogenes by broth micro-dilution method
Candida albicans = test: Antifungal activity against Candida albicans by broth micro-dilution method
Aspergillus niger = test: Antifungal activity against Aspergillus niger by broth micro-dilution method
Aspergillus clavatus = test: Antifungal activity against Aspergillus clavatus by broth micro-dilution method
HeLa = test: Cytotoxicity against human HeLa cells; conditions: for CC50: read-out: LC50 (the source's name)

Compound	MIC (Escherichia coli) [µg/mL]	MIC (Pseudomonas aeruginosa) [µg/mL]	MIC (Staphylococcus aureus) [µg/mL]	MIC (Streptococcus pyogenes) [µg/mL]	MIC (Candida albicans) [µg/mL]	MIC (Aspergillus niger) [µg/mL]	MIC (Aspergillus clavatus) [µg/mL]	GI50 (HeLa) [µM]	TGI (HeLa) [µM]	CC50 (HeLa) [µM]
Cc1cccc2sc(NC(=O)COc3cc4cc(c3)Oc3cc(c([N+](=O)[O-])cc3[N+](=O)[O-])Oc3cc(OCC(=O)Nc5nc6c(C)cccc6s5)cc(c3)Oc3cc(c([N+](=O)[O-])cc3[N+](=O)[O-])O4)nc12	25 (≈ 25.3 µM)	12.5 (≈ 12.6 µM)	3.12 (≈ 3.16 µM)	6.25 (≈ 6.32 µM)	25 (≈ 25.3 µM)	25 (≈ 25.3 µM)	12.5 (≈ 12.6 µM)	7.7	13.4	> 100
CC1(C)S[C@@H]2[C@H](NC(=O)[C@H](N)c3ccccc3)C(=O)N2[C@H]1C(=O)O [AMPICILLIN]	1 (≈ 2.86 µM)	–	2 (≈ 5.72 µM)	10 (≈ 28.6 µM)	–	–	–	–	–	–
O=C(COc1cc2cc(c1)Oc1cc(c([N+](=O)[O-])cc1[N+](=O)[O-])Oc1cc(OCC(=O)Nc3nc4ccc(Cl)cc4s3)cc(c1)Oc1cc(c([N+](=O)[O-])cc1[N+](=O)[O-])O2)Nc1nc2ccc(Cl)cc2s1	6.25 (≈ 6.07 µM)	6.25 (≈ 6.07 µM)	12.5 (≈ 12.1 µM)	3.12 (≈ 3.03 µM)	50 (≈ 48.6 µM)	50 (≈ 48.6 µM)	50 (≈ 48.6 µM)	13.7	28.6	> 100
COC1=CC(=O)C[C@@H](C)[C@]12Oc1c(Cl)c(OC)cc(OC)c1C2=O [GRISEOFULVIN]	–	–	–	–	50 (≈ 142 µM)	10 (≈ 28.3 µM)	10 (≈ 28.3 µM)	–	–	–
O=C(COc1cc2cc(c1)Oc1cc(c([N+](=O)[O-])cc1[N+](=O)[O-])Oc1cc(OCC(=O)Nc3nc4ccc([N+](=O)[O-])cc4s3)cc(c1)Oc1cc(c([N+](=O)[O-])cc1[N+](=O)[O-])O2)Nc1nc2ccc([N+](=O)[O-])cc2s1	12.5 (≈ 11.9 µM)	50 (≈ 47.6 µM)	1.75 (≈ 1.67 µM)	1.75 (≈ 1.67 µM)	50 (≈ 47.6 µM)	42.9 (≈ 40.8 µM)	50 (≈ 47.6 µM)	41.3	93.2	> 100
O=C(COc1cc2cc(c1)Oc1cc(c([N+](=O)[O-])cc1[N+](=O)[O-])Oc1cc(OCC(=O)N(c3ccccc3)c3ccccc3)cc(c1)Oc1cc(c([N+](=O)[O-])cc1[N+](=O)[O-])O2)N(c1ccccc1)c1ccccc1	1.75 (≈ 1.75 µM)	1 (≈ 1 µM)	1.75 (≈ 1.75 µM)	3.12 (≈ 3.13 µM)	12.5 (≈ 12.5 µM)	25 (≈ 25 µM)	12.5 (≈ 12.5 µM)	38.3	82.2	> 100
O=[N+]([O-])c1cc([N+](=O)[O-])c2cc1Oc1cc(cc(OS(=O)(=O)c3cccc4ccccc34)c1)Oc1cc(c([N+](=O)[O-])cc1[N+](=O)[O-])Oc1cc(cc(OS(=O)(=O)c3cccc4ccccc34)c1)O2	3.12 (≈ 3.25 µM)	3.12 (≈ 3.25 µM)	6.25 (≈ 6.5 µM)	12.5 (≈ 13 µM)	12.5 (≈ 13 µM)	50 (≈ 52 µM)	50 (≈ 52 µM)	31.3	61.3	> 100
COc1ccc2nc(NC(=O)COc3cc4cc(c3)Oc3cc(c([N+](=O)[O-])cc3[N+](=O)[O-])Oc3cc(OCC(=O)Nc5nc6ccc(OC)cc6s5)cc(c3)Oc3cc(c([N+](=O)[O-])cc3[N+](=O)[O-])O4)sc2c1	50 (≈ 49 µM)	25 (≈ 24.5 µM)	12.5 (≈ 12.2 µM)	3.12 (≈ 3.06 µM)	50 (≈ 49 µM)	25 (≈ 24.5 µM)	12.5 (≈ 12.2 µM)	20.1	39.4	> 100
O=C(COc1cc2cc(c1)Oc1cc(c([N+](=O)[O-])cc1[N+](=O)[O-])Oc1cc(OCC(=O)Nc3nc4ccc(Br)cc4s3)cc(c1)Oc1cc(c([N+](=O)[O-])cc1[N+](=O)[O-])O2)Nc1nc2ccc(Br)cc2s1	1 (≈ 0.894 µM)	1.75 (≈ 1.56 µM)	1 (≈ 0.894 µM)	25 (≈ 22.3 µM)	25 (≈ 22.3 µM)	25 (≈ 22.3 µM)	25 (≈ 22.3 µM)	2.1	4.6	> 100
O=C(COc1cc2cc(c1)Oc1cc(c([N+](=O)[O-])cc1[N+](=O)[O-])Oc1cc(OCC(=O)Nc3nc4ccccc4s3)cc(c1)Oc1cc(c([N+](=O)[O-])cc1[N+](=O)[O-])O2)Nc1nc2ccccc2s1	6.25 (≈ 6.5 µM)	6.25 (≈ 6.5 µM)	1 (≈ 1.04 µM)	50 (≈ 52 µM)	50 (≈ 52 µM)	50 (≈ 52 µM)	12.5 (≈ 13 µM)	10.3	19.4	> 100
O=C(COc1cc2cc(c1)Oc1cc(c([N+](=O)[O-])cc1[N+](=O)[O-])Oc1cc(OCC(=O)Nc3cccc4cccnc34)cc(c1)Oc1cc(c([N+](=O)[O-])cc1[N+](=O)[O-])O2)Nc1cccc2cccnc12	50 (≈ 52.7 µM)	3.12 (≈ 3.29 µM)	50 (≈ 52.7 µM)	50 (≈ 52.7 µM)	50 (≈ 52.7 µM)	50 (≈ 52.7 µM)	50 (≈ 52.7 µM)	28.8	59.2	> 100
O=C(COc1cc2cc(c1)Oc1cc(c([N+](=O)[O-])cc1[N+](=O)[O-])Oc1cc(OCC(=O)Nc3cccc4c3C(=O)c3ccccc3C4=O)cc(c1)Oc1cc(c([N+](=O)[O-])cc1[N+](=O)[O-])O2)Nc1cccc2c1C(=O)c1ccccc1C2=O	25 (≈ 22.6 µM)	1.75 (≈ 1.58 µM)	50 (≈ 45.2 µM)	1 (≈ 0.903 µM)	50 (≈ 45.2 µM)	50 (≈ 45.2 µM)	25 (≈ 22.6 µM)	53.4	> 100	> 100
GENTAMICIN	0.005	1	0.025	0.05	–	–	–	–	–	–
COc1cccc2c1C(=O)c1c(O)c3c(c(O)c1C2=O)C[C@@](O)(C(=O)CO)C[C@@H]3O[C@H]1C[C@H](N)[C@H](O)[C@H](C)O1 [DOXORUBICIN HYDROCHLORIDE]	–	–	–	–	–	–	–	< 0.1	< 0.1	95.5
NYSTATIN	–	–	–	–	10	10	10	–	–	–
CCn1cc(C(=O)O)c(=O)c2cc(F)c(N3CCNCC3)cc21 [NORFLOXACIN]	1 (≈ 3.13 µM)	1 (≈ 3.13 µM)	1 (≈ 3.13 µM)	1 (≈ 3.13 µM)	–	–	–	–	–	–
O=C(Oc1cc2cc(c1)Oc1cc(c([N+](=O)[O-])cc1[N+](=O)[O-])Oc1cc(OC(=O)c3cccc4ccccc34)cc(c1)Oc1cc(c([N+](=O)[O-])cc1[N+](=O)[O-])O2)c1cccc2ccccc12	1.75 (≈ 1.97 µM)	1.75 (≈ 1.97 µM)	50 (≈ 56.3 µM)	12.5 (≈ 14.1 µM)	25 (≈ 28.1 µM)	12.5 (≈ 14.1 µM)	12.5 (≈ 14.1 µM)	16.3	32.6	> 100
O=[N+]([O-])c1cc([N+](=O)[O-])c2cc1Oc1cc(cc(OS(=O)(=O)c3cccc4cccnc34)c1)Oc1cc(c([N+](=O)[O-])cc1[N+](=O)[O-])Oc1cc(cc(OS(=O)(=O)c3cccc4cccnc34)c1)O2	6.25 (≈ 6.49 µM)	12.5 (≈ 13 µM)	3.12 (≈ 3.25 µM)	12.5 (≈ 13 µM)	25 (≈ 26 µM)	50 (≈ 51.9 µM)	25 (≈ 26 µM)	12.8	25.6	> 100
